# Columns and labels:
# [1] = Flumazenil biotransformation in rat liver homogenate (HPLC-DAD/tandem MS); assay type: in vitro ADME
# Protocol: (§1) The quantification of flumazenil metabolism by hepatic enzymes was performed using HPLC (Agilent 1100 series, Palo Alto, CA, USA), which is comprised of an online degasser, a binary pump, an auto sampler, a thermostat column oven (maintained at 25 °C), and a diode array detector (DAD, 250 nm). Data were acquired and processed using the Agilent ChemStation software (ed. 10.02). Separation was achieved using a C18 column with a guard column and an ammonium acetate buffer–acetonitrile gradient elution. The mobile phase consisted of eluents A (5 mM ammonium acetate aqueous buffer with 1% ACN, pH 7.0) and B (ACN only) at a flow rate of 0.6 mL min^−1. These were mixed to separate the metabolites and flumazenil from the sample matrices, according to the gradient program shown in Table 1. The overall LC time for flumazenil biotransformation was 15 min. An analyte solution of 5 µL was injected using an auto-sampler thermostat at 4 °C.
# (§2) Mass spectrometric analysis of flumazenil in ACN was initially conducted on a 4000 QTrap LC-MS/MS system using API Analyst software 1.4.1 (AB Sciex, Concord, ON, Canada) to obtain the appropriate MS parameters and m/z for flumazenil fragments. Samples were introduced into the spectrometer, either by the HPLC system (Agilent 1100) or by a syringe pump, at a flow rate of 10 µL min^−1 (Harvard Apparatus Inc., Holliston, MA, USA). Chromatographic separation was conducted as described in the HPLC conditions section. The analytes were ionized by a turbo spray ion source (electrospray ionization, [ESI]) in the positive-ion mode at 5000 V and 350 °C. Mass spectra were recorded within a range of 100–1000 amu with unit resolutions of Q1 and Q3. The LC-tandem MS determination of flumazenil concentration was conducted in the multiple reaction monitoring positive-ion mode with transition ion pairs 304 → 258 and 304 → 276. Vaporized liquid nitrogen gas was used as the nebulizer, curtain, and collision gas in all 4000 QTrap LC–MS/MS studies.
# Normal rat livers were obtained from healthy male SD rats weighing 400–450 g. […]
# [2] = Flumazenil metabolization in rat liver microsomes (LC-DAD/tandem MS); assay type: in vitro ADME
# Protocol: as §1
# as §2, with “Vaporized liquid nitrogen gas was used as the nebulizer, curtain, and collision gas in all 4000 QTrap LC–MS/MS studies.” left out
# Incubation solutions were prepared according to the manufacturer’s instructions. […] The supernatants were filtered through a 0.22 µm PVDF disk filter and analyzed using LC-DAD and tandem MS. […]
# [3] = Radiochemical stability of [18F]flumazenil in 30% ethanol after end of synthesis; assay type: physicochemical; settings: amber glass vial, room temperature, 8 h after end of synthesis (EOS)
# [4] = In vitro serum stability of [18F]flumazenil (radio-TLC); settings: for Radiochemical Purity (RCP, %) in serum: rat serum, 37 °C
# Protocol: Serum preparation: healthy SD rats were deeply anesthetized with isoflurane gas (3% isoflurane in 50% oxygen, 1 mL/min). One milliliter of whole blood from healthy SD rats was withdrawn through the tail vein at room temperature and centrifuged at 3000 rpm for 10 min to obtain the prepared serum for stability testing.
smiles,measurement,setting,value
"CCOC(=O)c1ncn2c1CN(C)C(=O)c1cc(F)ccc1-2 [flumazenil, ethyl 8-fluoro-5-methyl-6-oxo-5,6-dihydro-4H-benzo[f]imidazo [1,5-a] [1, 4]diazepine-3-carboxylate]",parent drug biotransformed (parent peak area),"[1]; rat liver homogenate, 37 °C, 4 h (240 min)",approximately 65%
same,"flumazenil detected, of the initial amount",[2]; 120 min incubation,approximately 22%
CN1Cc2c(C(=O)O)ncn2-c2ccc(F)cc2C1=O [Metabolite M2],peak area of M2 increased by,[2]; up to 120 min incubation,72%
CN1Cc2c(C(=O)OCCO)ncn2-c2ccc(F)cc2C1=O [Metabolite M3],change of peak area of M3,[2]; up to 120 min incubation,No significant increase
COC(=O)c1ncn2c1CN(C)C(=O)c1cc(F)ccc1-2 [Metabolite M1],M1 formation,[1]; flumazenil incubated in rat liver homogenate 0–250 min,relatively low amount
CCOC(=O)c1ncn2c1CN(C)C(=O)c1cc([18F])ccc1-2 [[^18F]flumazenil],biotransformed metabolites in metabolism analysis,"[1]; after 30 min, as worded in conclusions",about 50%
same,radiochemical purity in 30% ethanol,[3],> 90%
same,"Radiochemical Purity (RCP, %) in serum",[4]; 0 min,95.76%
same,"Radiochemical Purity (RCP, %) in serum",[4]; 5 min,93.28%
same,"Radiochemical Purity (RCP, %) in serum",[4]; 10 min,91.07%
same,"Radiochemical Purity (RCP, %) in serum",[4]; 30 min,87.46%
same,"Radiochemical Purity (RCP, %) in serum",[4]; 60 min,85.68%
same,"Radiochemical Purity (RCP, %) in serum",[4]; 120 min,79.95%
same,"Radiochemical Purity (RCP, %) in serum",[4]; 240 min,72.13%
same,intact [18F]flumazenil in serum,"[4]; up to 1 h of incubation, regular conditions",> 85%

# Reference: publication PMC10223822, “Identification of the Hepatic Metabolites of Flumazenil and their Kinetic Application in Neuroimaging” (Pharmaceuticals, 2023)
